The target in one data set is T1, recombinant hMAO-B (Homo sapiens, UniProt P27338).
T1 construct: purchased Fluka-Sigma-Aldrich s.r.l; (Italy); host or cells: Baculovirus infected BT1 cells
T1 sequence (P27338 1-520): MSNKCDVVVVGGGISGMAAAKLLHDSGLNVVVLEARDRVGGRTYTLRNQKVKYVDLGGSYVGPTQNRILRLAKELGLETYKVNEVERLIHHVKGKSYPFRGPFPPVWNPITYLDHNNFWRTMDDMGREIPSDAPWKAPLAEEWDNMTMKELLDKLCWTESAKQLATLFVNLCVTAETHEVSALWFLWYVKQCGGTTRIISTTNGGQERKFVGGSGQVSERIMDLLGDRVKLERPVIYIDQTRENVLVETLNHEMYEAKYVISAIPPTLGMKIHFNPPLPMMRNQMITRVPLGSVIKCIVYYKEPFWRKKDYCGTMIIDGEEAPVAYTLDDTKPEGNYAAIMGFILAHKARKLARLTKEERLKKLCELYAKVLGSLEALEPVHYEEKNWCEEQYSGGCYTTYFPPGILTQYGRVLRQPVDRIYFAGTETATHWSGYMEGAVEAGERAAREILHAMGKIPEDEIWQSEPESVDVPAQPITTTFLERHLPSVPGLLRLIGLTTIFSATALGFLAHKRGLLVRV
Put plainly: hMAO-B activity assay (kynuramine, fluorimetric). In kind it is biochemical. The note with it: for mechanism of hMAO-B inhibition: double reciprocal plots / global fit; for SI (selectivity index): calculated as hMAO-A Ki/hMAO-B Ki. The method, then: Human recombinant hMAO-A and hMAO-B expressed in Baculovirus infected BT1 cells (5 mg/mL) and horseradish peroxidases were purchased from Fluka-Sigma-Aldrich s.r.l. (Italy). A Cary Eclipse fluorimeter (Varian Inc., Palo Alto, CA, USA) was used for fluorescence measurements. […] At first, the peroxidase-coupled continuous assay that detect the H2O2 generation rate was considered. It uses the Amplex Red reagent as the fluorogenic substrate for horseradish peroxidase.
By applying this method, hMAO activity assays were performed in K/Pi 0.1 M, EDTA 1 mM (total volume: 200 μL; pH 7.4, T = 37 °C), in the presence and in absence of various concentrations of the different compounds (0.2–20 μM and 2–50 μM in the case of hMAO–B and hMAO-A, respectively).
MAOs stock solutions were diluted with assay buffer in the presence or absence of the tested compound to obtain a final concentration of 0.005 mg/mL for MAO-A and 0.010 mg/mL for MAO-B; then, kynuramine (10–300 μM final concentration) was added to the assay solution. After 45–60 min of incubation at 37 °C, the reaction was stopped by the addition of 2 M NaOH (80 μL) and 480 μL of distilled water. Kynuramine deaminated by MAO spontaneously cyclizes to provide 4-hydroxyquinoline, the amount of which was determined by the fluorescence intensity of the peak of its emission spectra (λexc = 330 nm and λem 330–530 nm). Then, the rate of reaction was calculated using a specific calibration curve (in the presence of the same amount of the tested compound) built with the standard 4-hydroxyquinoline.
Under these experimental conditions, the Michaelis–Menten equation for rate of reaction, can be simplified as follows: V ≈ (Vmax/KM) [E]0[S]0 [49]. In the presence of an inhibitor, one or both the kinetic parameters, KM and Vmax, might be affected by its presence, depending on the inhibition mechanism. In particular, in the presence of a reversible inhibitor, both the kinetic parameters could be affected, and the apparent kinetic parameter would then become: KM I = KM,0 (1 + [I]/Ki)/(1 + [I]/(αKi)), and VmaxI = Vmax0/(1 + [I]/(αKi)), where α is the factor indicating how much the dissociation constant of the enzyme-substrate-I complex is different from that of the enzyme–I complex (also named Ki). Consequently, the ratio of the initial rate of reaction in the absence (Vo) and in the presence (VI) of the tested compound (Vo/VI) can be simplified to the ratio of (Vmax/KM)o/(Vmax/KM)I ≈ (1 + [I]/Ki).
To study the mechanism of inhibition, the steady-state kinetic parameters (Vmax and Km) of MAO-A and MAO-B were determined by performing experiments at different substrate concentrations and in the absence and presence of different concentrations of the tested compound. Vmax and Km were calculated by fitting the Michaelis–Menten equation to the experimental data (initial rate of reactions vs. substrate concentrations), with Sigma Plot software, version 9.0 (Jandel Scientific, San Rafael, CA, USA).

In data set [1] the test system is Nrf2 nuclear translocation in SH-SY5Y cells. Briefly: Nrf2 nuclear translocation (Western blot of nuclear extracts). The data set is classed as cell-based, human. An excerpt: In physiological conditions, the repressor Keap1 traps Nrf2 at the cytosolic level, preventing the activation of Nrf2 pathway. The disruption of Keap1–Nrf2 interaction allows for Nrf2 nuclear translocation, thus resulting in the transcriptional activation of its target cytoprotective genes. […] We and others have previously developed several compounds bearing caffeic and ferulic fragments able to activate Nrf2 in terms of the up-regulation of Nrf2 expression, translocation into the nucleus and induction of the Nrf2-dependent defensive genes, with (pro)electrophilic features emerging as key players. Herein, to analyse the effect of the new molecules on the Nrf2 downstream cascade, the ability of compounds 1–5 to increase Nrf2 nuclear translocation was preliminary evaluated as a pivotal step in Nrf2 signalling activation (Figure 6). Based on MAO-B inhibitory potency and cell toxicity assay, compounds were studied in SH-SY5Y human neuroblastoma cells at the concentration of 5 μM. Given the high structural analogy with our derivatives, we selected the well-known Nrf2 inducer CAPE [37, 38] as the reference compound, and verified its ability to induce Nrf2 nuclear translocation at different concentrations, ranging from 5 µM to 50 µM in our experimental model (Figure S6). Nrf2 nuclear content was assessed via Western blot analysis. […] Consistently, data from literature highlight discrepancies about pioglitazone-mediated Nrf2 activation, indicating its ability to activate Nrf2 in longer timeframes and different in vitro and in vivo experimental conditions. […] The preliminary docking performed on human Keap-1 confirms the excellent positioning of compound 2 within the BTB domain pocket, where cysteine 151 is located (see Figure S5). […] Particularly, all these new molecules hold the characteristic (pro)electrophilic fragments, which however, in this case, resulted to be insufficient to activate Nrf2, as reported for other ferulic and caffeic derivatives. In this regard, optimal target interaction might play a major role, but further biological investigations are needed to fully clarify the mechanism of Nrf2 activation and the effect on the downstream expression of cytoprotective genes.
SH-SY5Y cells (5 × 106) were seeded in […] dishes and treated for 3 h with 5 μM compounds; afterward, the medium was removed, and cells were washed twice with ice-cold PBS. Cells were subsequently homogenized 15 times using a glass−glass Dounce homogenizer in 0.32 M sucrose, buffered with 20 mM Tris- HCl (pH 7.4), containing 2 mM EDTA, 0.5 mM EGTA, 50 mM β-mercaptoethanol and 20 μg/mL leupeptin, apotrinin and pepstatin. The homogenate was centrifuged at 300× g for 5 min to obtain the nuclear fraction. An aliquot of the nuclear fraction was used for protein assay via the Bradford method, whereas the remaining was boiled for 5 min after dilution with sample buffer and subjected to polyacrylamide gel electrophoresis and immunoblotting, as described.
A general note: A western blot detects proteins with antibodies after separation by electrophoresis.

Data on three compounds can be found in paper PMC10650714, “Double Attack to Oxidative Stress in Neurodegenerative Disorders: MAO-B and Nrf2 as Elected Targets” (Molecules, 2023).

By melting point is commonly meant the temperature of the solid-liquid transition.

Structures are written as SMILES. Several values for one entry are separate records, joined by “and”; a condition that tells them apart may be missing. Identical values can stand only once. Entries after “also recorded” stand apart in the source; their conditions may differ. Like-named read-outs stand apart in the source and are kept apart here.

For `CCc1ccc(CCOc2ccc(CC3SC(=O)NC3=O)cc2)nc1` (stereo not drawn) [Pioglitazone, reference compound], the “mechanism of hMAO-B inhibition” value at recombinant hMAO-B was “selective and competitive inhibitor”. Also, the Nrf2 nuclear translocation result in data set [1] (until concentrations higher than 50 µM) is “not able to induce Nrf2 nuclear translocations”.

`O=C(/C=C/c1ccc(O)c(O)c1)Oc1ccc(CC2SC(=O)NC2=O)cc1` (stereo not drawn) [Compound 2, 4-((2,4-Dioxothiazolidin-5-yl)methyl)phenyl (E)-3-(3,4-Dihydroxyphenyl)acrylate] yielded a melting point of 150 to 151 °C. Moreover, on recombinant hMAO-B, the “SI (selectivity index)” value is recorded as 66 and the “mechanism of hMAO-B inhibition” value was “mixed inhibition”. Further, at recombinant hMAO-B (global fit analysis, mixed inhibition model, read-out: KEI (inhibition constant for the free enzyme)), the Ki worked out at 450 ± 800 nM. The Ki at recombinant hMAO-B (kynuramine [S] = 10 µM, pH 7.4, 37 °C, mean ± S.D., read-out: hMAO-B Ki) is 500 nM and 530 nM. Besides, the Ki at recombinant hMAO-B (read-out: hMAO-B Ki) was found to be 530 nM. In addition, in data set [1] (5 μM, 3 h), the Nrf2 nuclear translocation entry is listed as “most active; also recorded: strongly induced Nrf2 translocation into the nucleus”.

Regarding `O=C(/C=C/c1ccc(O)c(O)c1)OCCc1ccccc1` [CAPE, caffeic acid phenethyl ester, reference compound], the “SI (selectivity index)” value at recombinant hMAO-B was 6.7. The Ki at recombinant hMAO-B (hMAO-B Ki, kynuramine [S] = 10 µM, pH 7.4, 37 °C, mean ± S.D.) was 1800 ± 200 nM. In data set [1] (5 µM and 20 µM, 3 h), the Nrf2 nuclear translocation result was “induced Nrf2 nuclear translocation”.
